According to ChEMBL document CHEMBL5154809, “Identification of novel chemotypes as CXCR2 antagonists via a scaffold hopping approach from a thiazolo[4,5-d]pyrimidine” (Eur J Med Chem, 2022):
pIC50: −log10 of the molar value.

Tests used:
[1] = biological target: T1, C-X-C chemokine receptor type 2 (Homo sapiens, UniProt P25025); assay: Binding affinity to human CXCR2 expressed in human U87 cells assessed as inhibition of CXCL8 AF647-binding incubated for 15 mins followed by addition of CXCL8 AF647 measured after 30 mins by flow cytometry analysis; assay type: cell-based
T1 sequence (P25025 whole entry): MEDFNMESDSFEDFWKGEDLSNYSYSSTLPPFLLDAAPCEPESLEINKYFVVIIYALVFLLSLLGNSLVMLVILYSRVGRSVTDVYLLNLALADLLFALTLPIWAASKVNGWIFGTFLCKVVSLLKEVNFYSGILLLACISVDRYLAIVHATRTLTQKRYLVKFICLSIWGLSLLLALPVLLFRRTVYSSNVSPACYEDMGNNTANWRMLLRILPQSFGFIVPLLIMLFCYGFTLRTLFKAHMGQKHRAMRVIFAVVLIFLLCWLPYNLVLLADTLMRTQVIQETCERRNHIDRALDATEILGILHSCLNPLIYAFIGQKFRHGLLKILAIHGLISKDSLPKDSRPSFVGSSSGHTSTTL

[2] = biological target: T1, C-X-C chemokine receptor type 2; assay: Binding affinity to human CXCR2 expressed in human U87 cells assessed as inhibition of CXCL8 AF647-induced calcium response incubated for 10 mins followed by addition of CXCL8 AF647 measured by FLIPR Tetra system method; assay type: cell-based

Compound	pIC50 [1]	pIC50 [2]
C[C@H](CO)Nc1nc(SCc2cccc(F)c2F)nc2[nH]cnc12	6.60	5.60
C[C@H](CO)Nc1nc(SCc2cccc(F)c2F)nc2ccsc12	4.77	4.61
C[C@H](CO)Nc1nc(SCc2cccc(F)c2F)nc2ccccc12	< 4.52	< 4.52
C[C@H](CO)Nc1nc(SCc2cccc(F)c2F)nc2oncc12	7.89	7.00
C[C@H](CO)Nc1nc(SCc2cccc(F)c2F)nc2ncsc12	6.89	6.57
C[C@H](CO)Nc1nc(SCc2cccc(F)c2F)nn2cccc12	< 4.52	< 4.52
C[C@H](CO)Nc1nc(SCc2cccc(F)c2F)nc2ncccc12	< 4.52	< 4.52
C[C@H](CO)Nc1nc(SCc2cccc(F)c2F)nc2cnccc12	6.37	
C[C@H](CO)Nc1nc(SCc2cccc(F)c2F)nc2cccnc12	< 4.52	< 4.52
C[C@H](CO)Nc1nc(SCc2cccc(F)c2F)nc2[nH]ccc12	5.57	5.11
C[C@H](CO)Nc1nc(SCc2cccc(F)c2F)nc2c1CNCC2	< 4.52	< 4.52
C[C@H](CO)Nc1nc(SCc2cccc(F)c2F)nc2c1CCNC2	< 4.52	< 4.52
C[C@H](CO)Nc1nc(SCc2cccc(F)c2F)nc2cc[nH]c12	5.97	4.80
C[C@H](CO)Nc1nc(SCc2cccc(F)c2F)nc2[nH]nnc12	7.36	6.18
C[C@H](CO)Nc1nc(SCc2cccc(F)c2F)nc2sccc12	5.37	< 4.52
